# Data: patent US11225505B2, “Antimicrobial polymyxin derivative compounds” (MONASH UNIVERSITY, priority 2015, dated 2022)
# Where a SMILES comes first, the peptide text is derived from it. Bridges are numbered along the chain shown (N, C = ends). [ ]: non-standard residue; d: D form. The star is where a group is joined. Quinaldoyl = O=C(c1ccc2ccccc2n1)*; X46 = O=C(c1cc(Br)nc(Br)c1)*; X38 = O=C(c1cc2sccc2[nH]1)*; X65 = O=C(c1cc(Br)ccn1)*; Dab = NCC[C@H](N)C(=O)O; Abu = CC[C@H](N)C(=O)O; Dap = NC[C@H](N)C(=O)O
# How the values were obtained:
# Assay type in all cases: cell-based
# [1] = test system: Acinetobacter baumannii ATCC 17978; conditions: ATCC 17978
# Outline: (§1)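 Standard CLSI (M100-S24) microdilution in cation-adjusted broth gives the MIC for each strain. Test compounds are TFA-salt lipopeptides; the comparator is polymyxin B sulphate.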
# [2] = test system: Acinetobacter baumannii FADDI-AB034; conditions: FADDI-AB034
# Outline: as §1
# [3] = test system: Enterobacter cloacae FADDI-EC001; conditions: FADDI-EC001
# Outline: (§2)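 Lipopeptides (TFA salts) tested against Gram-negative strains by CLSI broth microdilution using cation-adjusted Mueller-Hinton broth; MIC recorded, polymyxin B sulphate as control.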
# [4] = test system: Enterobacter cloacae FADDI-EC003; conditions: FADDI-EC003
# Outline: as §1
# [5] = test system: Enterobacter cloacae FADDI-EC006; conditions: FADDI-EC006
# Outline: as §1
# [6] = test system: Klebsiella pneumoniae FADDI-KP022; conditions: FADDI-KP022
# Outline: as §1
# [7] = test system: Klebsiella pneumoniae FADDI-KP032; conditions: FADDI-KP032
# Outline: as §1
# [8] = test system: Klebsiella pneumoniae Kp BM1; conditions: Kp BM1
# Outline: as §2
# [9] = test system: Pseudomonas aeruginosa ATCC 27853; conditions: ATCC 27853
# Outline: as §1
# [10] = test system: Pseudomonas aeruginosa FADDI-PA01; conditions: FADDI-
# Outline: as §1
# [11] = test system: Pseudomonas aeruginosa FADDI-PA022; conditions: FADDI-PA022
# Outline: as §1
# [12] = test system: Pseudomonas aeruginosa FADDI-PA038; conditions: FADDI-PA038
# Outline: as §1
# [13] = test system: Acinetobacter baumannii FADDI-AB030; assay: microbe, parasite or virus in culture; conditions: FADDI-AB030
# Outline: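 Broth microdilution MIC in cation-adjusted Mueller-Hinton broth per CLSI M100-S24; lipopeptides tested as TFA salts. FADDI-AB030 is a multidrug-resistant clinical isolate. Polymyxin B sulphate served as control.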
Compound,Minimum inhibitory concentration [1] [µg/mL],Minimum inhibitory concentration [2] [µg/mL],Minimum inhibitory concentration [3] [µg/mL],Minimum inhibitory concentration [4] [µg/mL],Minimum inhibitory concentration [5] [µg/mL],Minimum inhibitory concentration [6] [µg/mL],Minimum inhibitory concentration [7] [µg/mL],Minimum inhibitory concentration [8] [µg/mL],Minimum inhibitory concentration [9] [µg/mL],Minimum inhibitory concentration [10] [µg/mL],Minimum inhibitory concentration [11] [µg/mL],Minimum inhibitory concentration [12] [µg/mL],Minimum inhibitory concentration [13] [µg/mL]
CC[C@@H]1NC(=O)[C@@H](CC(C)C)NC(=O)[C@H](CCN)NC(=O)[C@@H](NC(=O)[C@H](CN)NC(=O)[C@@H](NC(=O)[C@H](CCN)NC(=O)c2cc(Br)nc(Br)c2)[C@@H](C)O)CCNC(=O)[C@H]([C@@H](C)O)NC(=O)[C@H](CCN)NC(=O)[C@H](CCN)NC1=O [Compound 28] (X46-[Dab]T[Dap][Dab][Dab][dL][Abu][Dab][Dab]T; lactam 4-C),0.25,0.25,0.25,0.25,<0.125,<0.125,0.25,0.25,0.25,1,0.25,1,0.25
CC[C@@H]1NC(=O)[C@@H](CC(C)C)NC(=O)[C@H](CCN)NC(=O)[C@@H](NC(=O)[C@H](CN)NC(=O)[C@@H](NC(=O)[C@H](CCN)NC(=O)c2cc(Br)ccn2)[C@@H](C)O)CCNC(=O)[C@H]([C@@H](C)O)NC(=O)[C@H](CCN)NC(=O)[C@H](CCN)NC1=O [Compound 102] (X65-[Dab]T[Dap][Dab][Dab][dL][Abu][Dab][Dab]T; lactam 4-C),0.5,0.5,<0.125,<0.125,<0.125,<0.125,0.25,<0.125,0.5,0.5,0.5,1,0.25
CC[C@@H]1NC(=O)[C@@H](CC(C)C)NC(=O)[C@H](CCN)NC(=O)[C@@H](NC(=O)[C@H](CN)NC(=O)[C@@H](NC(=O)[C@H](CCN)NC(=O)c2ccc3ccccc3n2)[C@@H](C)O)CCNC(=O)[C@H]([C@@H](C)O)NC(=O)[C@H](CCN)NC(=O)[C@H](CCN)NC1=O [Compound 55] (Quinaldoyl-[Dab]T[Dap][Dab][Dab][dL][Abu][Dab][Dab]T; lactam 4-C),1,0.25,<0.125,<0.125,<0.125,<0.125,<0.125,0.5,0.25,0.25,<0.125,0.25,0.25
CC[C@@H]1NC(=O)[C@@H](CC(C)C)NC(=O)[C@H](CCN)NC(=O)[C@@H](NC(=O)[C@H](CN)NC(=O)[C@@H](NC(=O)[C@H](CCN)NC(=O)c2cc3sccc3[nH]2)[C@@H](C)O)CCNC(=O)[C@H]([C@@H](C)O)NC(=O)[C@H](CCN)NC(=O)[C@H](CCN)NC1=O [Compound 90] (X38-[Dab]T[Dap][Dab][Dab][dL][Abu][Dab][Dab]T; lactam 4-C),2,1,<0.125,<0.125,0.5,<0.125,0.25,0.25,0.5,0.25,0.5,0.5,0.5
